# Laboratory results: patent EP4768480A1, “ALKOXY THIOPHENE ACYL ARYLAMINE COMPOUNDS AND USE THEREOF” (priority 2024, dated 2025)
# Experiments:
# dry eye mice [1] = experiment: Ocular surface sodium fluorescein staining in dry eye mice; type: in vivo, male C57BL/6 experimental mice; details: for corneal fluorescein sodium staining scores compared to cyclosporine eyedrops: 0.04% compound, comparison with cyclosporine eyedrops; for corneal fluorescein sodium staining scores compared to cyclosporine eyedrops / corneal fluorescein sodium staining scores: 5 µl per eye, twice daily, one week; for corneal fluorescein sodium staining scores: ocular surface, 0.04% compound or commercial cyclosporine eyedrops, versus carrier group; for area of corneal damage (sodium fluorescein staining photograph): compared to the carrier group, Figure 2
# Method: (§1) Experimental animals: male C57BL/6 experimental mice aged 6-8 weeks.
# (§2) Experimental reagents and consumables: phenol red cotton line, 1% sodium fluorescein solution, ? 0.05% cyclosporin eyedrops (II) from Xingqi Eyedrops Company, 0.
# (§3) At the end of 2 weeks, the dry eye mice were randomly divided into four groups, with 7 mice in each group.
# (§4) Each eye of every mouse received 5 µl of […] through ocular surface administration, twice daily. Another group of 7 male C57BL/6 experimental mice aged 6-8 weeks was kept in a thermostatic blast drying oven with controlled environmental humidity of 50% and temperature of 25°C, and received an empty carrier as a physiological control in the third week.
# (§5) All mice were evaluated for ocular surface damage recovery by ocular surface fluorescein sodium staining scores on the third weekend, and the tear secretion of mice was measured with phenol red surface lines. To be more specific, the phenol red surface line was placed in the conjunctival sac of a mouse in the anesthesia state for 30 seconds, and then the discoloration length of the phenol red surface line was measured. 2 µl of 1% sodium fluorescein solution was then administered through ocular surface, and photographs were taken under a cobalt blue lamp for scoring and statistics.
# dry eye mice [2] = experiment: Tear secretion by phenol red cotton thread in dry eye mice; type: in vivo, male C57BL/6 experimental mice; details: thread 30 seconds in conjunctival sac, compared to the vehicle group, Figure 3
# Method: as §1, §2, §3, §4, §5
# Aβ = Aβ (Homo sapiens, UniProt P05067); details: literature value, Deepak et al., 2020; read-out: inhibiting the aggregation of Aβ, EC50; cited from earlier work
# Aβ, sequence (P05067 672-713 limits assumed): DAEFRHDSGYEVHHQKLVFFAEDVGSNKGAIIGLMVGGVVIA
# SMS2 = molecular target: T1, SMS2 (Homo sapiens, UniProt Q8NHU3); experiment: SMS2 inhibitory activity in vitro, HPLC fluorescence quantitative detection (C6-NBD-ceramide to C6-NBD-SM); type: biochemical; details: SMS2 pure enzyme, 37°C, 30 minutes, average of two measurements; for inhibition at 1 µM: 1 µM test compound, read-out: Inhibition rate on SMS2 at C/µM 1; for inhibition at 10 µM: 10 µM test compound, read-out: Inhibition rate on SMS2 at C/µM 10
# T1 construct: CAO, Yu research team, National Protein Scientific Center (Shanghai); supplied by an outside laboratory, not a commercial vendor
# T1 sequence (Q8NHU3 1-365): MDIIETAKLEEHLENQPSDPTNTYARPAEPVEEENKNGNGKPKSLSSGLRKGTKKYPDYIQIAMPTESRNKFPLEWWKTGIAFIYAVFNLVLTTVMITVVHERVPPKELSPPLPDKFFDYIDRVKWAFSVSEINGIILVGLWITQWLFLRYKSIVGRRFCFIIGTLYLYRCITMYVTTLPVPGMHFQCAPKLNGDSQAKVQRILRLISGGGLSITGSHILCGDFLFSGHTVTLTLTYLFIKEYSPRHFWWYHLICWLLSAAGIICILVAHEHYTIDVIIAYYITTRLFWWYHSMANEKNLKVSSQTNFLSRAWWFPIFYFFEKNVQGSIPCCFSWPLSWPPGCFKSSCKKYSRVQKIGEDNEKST
# Text: • 1. Electro-thermostatic water bath, from Shanghai Yiheng Technology Co., Ltd.); • 2. Vortex Mixer, with model ID of XW-80A, from Shanghai Jingke Industrial Co., Ltd.; • 3. […] High Performance Liquid Chromatography Agilent 1100, equipped with a quaternary pump, vacuum degassing, and FLD fluorescence detector, from Agilent Technologies, Palo Alto, CA, USA; • 5. HPLC column COSMOSIL 5C18-MS-II (4.6mm I.D. X 250mm); • 6. […] The organic solvents used in the present disclosure were purchased from Shanghai National Reagent Company, wherein methanol was pure chromatography; water was ultra-pure water which is filtrated by Milli-Q pump, deionized and ultra-filtrated with 0.22 µm membrane; and other biological consumables were purchased from domestic companies; • 8. Preparation of test compound solutions: each test compound was accurately weighed and dissolved in an appropriate volume of DMSO to prepare a 10 mmol/L stock solution. The stock solution was then diluted with an appropriate volume of DMSO to achieve the desired working concentration; • 9. SMS2 pure enzyme, DDM solution and buffer solution were provided by CAO, Yu research team from National Protein Scientific Center (Shanghai).
# 79 µl of the diluted enzyme solution were transferred into a 1.5 mL EP tube, 1 µl of inhibitor DMSO solution were added thereto, vortexing for 15 seconds, followed by standing at room temperature for 5 minutes. 20 µl of a mixed solution of DMPC and C6-NBD-ceramide were added, vortexing for 15 seconds, and incubated at 37°C for 30 minutes. 200 µl of anhydrous ethanol were added to quench the reaction, vortexing for 15 seconds. 200 µl of the reaction solution were taken out and stored at 4°C and avoided light for HPLC detection.
# The peak area values of A(sm) and A(ceramide) in the HPLC chromatogram corresponding to C6-NBD-SM and C6-NBD-Ceramide in the DMSO group and inhibitor group samples were analyzed and recorded, and the inhibition rate of the test compound was calculated according to the following formula. Inhibition rate = (Peak area values of DMSO group−Peak area values of Inhibitor group)/(Peak area values of DMSO group) × 100% [formula]
SMILES,inhibition at 1 µM (SMS2) [%],inhibition at 10 µM (SMS2) [%],further results
"O=C(Nc1cccnc1)c1sccc1OCc1cc(F)ccc1Cl [1-2, 3-(2-chloro-5-fluorobenzyloxy)-N-(pyridin-3-yl)thiophene-2-carboxamide]",–,–,corneal fluorescein sodium staining scores compared to cyclosporine eyedrops (dry eye mice [1]): statistically significant advantages; corneal fluorescein sodium staining scores (dry eye mice [1]): reduction in corneal fluorescein sodium staining scores; area of corneal damage (sodium fluorescein staining photograph) (dry eye mice [1]): can reduce the area of corneal damage; tear secretion (discoloration length of phenol red cotton thread) (dry eye mice [2]): exhibited an increasing trend compared to the vehicle group
CC(C)=CCC/C(C)=C/CC[C@@]1(C)C=Cc2c(cc(C)c(C(=O)O)c2O)O1 [Daurichromonic acid],–,–,EC50 (Aβ): 57 µM
"CCCOc1cccc(Cl)c1COc1ccsc1C(=O)Nc1cccnc1 [1-39, 3-(2-chloro-6-propoxybenzyloxy)-N-(pyridin-3-yl)thiophene-2-carboxamide]",74,–,–
"Cc1cccc(COc2ccsc2C(=O)Nc2cccnc2)c1 [1-43, 3-(3-methylbenzyloxy)-N-(pyridin-3-yl)thiophene-2-carboxamide]",69,–,–
"O=C(Nc1cccnc1)c1sccc1OCc1ccccc1[N+](=O)[O-] [1-21, 3-(2-nitrobenzyloxy)-N-(pyridin-3-yl)thiophene-2-carboxamide]",–,93,–
"O=C(Nc1cccnc1)c1sccc1OCc1c2ccccc2cc2ccccc12 [1-13, 3-(anthracen-9-ylmethoxy)-N-(pyridin-3-yl)thiophene-2-carboxamide]",50,–,–
"O=C(Nc1cccnc1)c1sccc1OCc1cccc(F)c1 [1-45, 3-(3-fluorobenzyloxy)-N-(pyridin-3-yl)thiophene-2-carboxamide]",67,–,–
O=C(Nc1cccnc1)c1nccnc1OCc1ccccc1 [12-20],–,16,–
"O=C(Nc1cc(C(F)(F)F)ccn1)c1sccc1OCc1ccccc1 [1-5, 3-benzyloxy-N-(4-(trifluoromethyl)pyridin-2-yl)thiophene-2-carboxamide]",47,–,–
"CCCCCCCOc1ccc(Cl)cc1COc1ccsc1C(=O)Nc1cccnc1 [1-74, 3-(5-chloro-2-(heptyloxy)benzyloxy)-N-(pyridin-3-yl)thiophene-2-carboxamide]",98,–,–
"CCCCCCCCOc1ccsc1C(=O)Nc1cccnc1 [1-96, 3-octyloxy-N-(pyridin-3-yl)thiophene-2-carboxamide]",–,50,–
"O=C(Nc1cccnc1)c1sc([N+](=O)[O-])cc1OCc1ccccc1 [1-14, 3-benzyloxy-5-nitro-N-(pyridin-3-yl)thiophene-2-carboxamide]",–,50,–
"Cc1cc(OCc2ccccc2)c(C(=O)Nc2cccnc2)s1 [1-40, 3-benzyloxy-5-methyl-N-(pyridin-3-yl)thiophene-2-carboxamide]",23,–,–
"CN(C(=O)c1sccc1OCc1ccccc1)c1cccnc1 [1-62, 3-benzyloxy-N-methyl-(pyridin-3-yl)thiophene-2-carboxamide]",–,57,–
"O=C(Nc1cccnc1)c1cccnc1OCc1ccccc1 [12-18, 2-benzyloxy-N-(pyridin-3-yl)pyridin-3-carboxamide]",–,22,–
"CCCCCCCCOc1ccccc1COc1ccsc1C(=O)Nc1cccnc1 [1-31, 3-(2-(octyloxy)benzyloxy)-N-(pyridin-3-yl)thiophene-2-carboxamide]",–,–,corneal fluorescein sodium staining scores compared to cyclosporine eyedrops (dry eye mice [1]): statistically significant advantages; corneal fluorescein sodium staining scores (dry eye mice [1]): reduction in corneal fluorescein sodium staining scores; area of corneal damage (sodium fluorescein staining photograph) (dry eye mice [1]): can reduce the area of corneal damage; tear secretion (discoloration length of phenol red cotton thread) (dry eye mice [2]): exhibited an increasing trend compared to the vehicle group
"O=C(Nc1cccnc1)c1sccc1OCc1cccc(OC(F)(F)F)c1 [1-55, 3-(3-(trifluoromethoxy)benzyloxy)-N-(pyridin-3-yl)thiophene-2-carboxamide]",–,65,–
"O=C(Nc1cccnc1)c1sccc1OCc1cc(O)ccc1Cl [1-24, 3-(2-chloro-5-hydroxybenzyloxy)-N-(pyridin-3-yl)thiophene-2-carboxamide]",78,–,–
O=C(Nc1ccc(C(F)(F)F)nc1)c1sccc1OCc1ccccc1 [12-14],–,10,–
O=C(Nc1ccncc1)c1sccc1OCc1ccccc1 [12-11],7,–,–
"O=C(Nc1cccnc1)c1sccc1OCc1c(F)c(F)cc(F)c1F [1-67, 3-(2,3,5,6-tetrafluorobenzyloxy)-N-(pyridin-3-yl)thiophene-2-carboxamide]",67,–,–
O=C(Nc1ccc(F)nc1)c1sccc1OCc1ccccc1 [12-13],9,–,–
"O=C(Nc1cccnc1)c1ccncc1OCc1ccccc1 [12-17, 3-benzyloxy-N-(pyridin-3-yl)pyridin-4-carboxamide]",–,27,–
"O=C(Nc1cc(F)ccn1)c1sccc1OCc1ccccc1 [12-4, 3-benzyloxy-N-(4-fluoropyridin-2-yl)thiophene-2-carboxamide]",3,–,–
